Measured values: PubChem BioAssay (NCI)
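Grown in 96-well plates, cells were treated for 48 hours with each compound at five concentrations. Insufficient inhibition: endpoint recorded as highest concentration tested. GI50 marks 50% less growth. TGI is the concentration that stops growth completely.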

Columns and labels:
Assay in all cases: inhibition of tumour cell growth, NCI panel, 48 h
ACHN renal = tested on: ACHN renal
HL-60(TB) leukemia = tested on: HL-60(TB) leukemia
HOP-62 NSCLC = tested on: HOP-62 NSCLC
NCI-H522 lung = tested on: NCI-H522 lung
NCI/ADR-RES ovarian = tested on: NCI/ADR-RES ovarian
OVCAR-3 ovarian = tested on: OVCAR-3 ovarian
SF-539 CNS = tested on: SF-539 CNS
SNB-75 CNS = tested on: SNB-75 CNS
TK-10 renal = tested on: TK-10 renal
SW-620 colon = tested on: SW-620 colon

Molecule `N#Cc1c(Cl)c2cc([N+](=O)[O-])ccc2n2c1nc1ccccc12` has a TGI (ACHN renal) of 13.6 µM, a TGI (HL-60(TB) leukemia) of 0.58 µM and a TGI (HOP-62 NSCLC) of 47.4 µM. It also gave a TGI (NCI-H522 lung) of 4.71 µM, a TGI (NCI/ADR-RES ovarian) of 28 µM and a TGI (OVCAR-3 ovarian) of 29.6 µM. The TGI (SF-539 CNS) was 4.28 µM, the TGI (SNB-75 CNS) was 24.6 µM and the TGI (TK-10 renal) was 8.95 µM.
Molecule `CCOC(=O)C(O)(NC(=O)c1ccc(F)cc1)C(F)(F)F` (stereo not drawn) has a TGI (ACHN renal) of over 100 µM, a TGI (HL-60(TB) leukemia) of over 100 µM and a TGI (HOP-62 NSCLC) of over 100 µM. It also gave a TGI (NCI-H522 lung) of over 100 µM, a TGI (NCI/ADR-RES ovarian) of over 100 µM and a TGI (OVCAR-3 ovarian) of over 100 µM. For the same molecule, the TGI (SF-539 CNS) was over 100 µM, the TGI (SNB-75 CNS) was over 100 µM and the TGI (SW-620 colon) was over 100 µM. For the same molecule, the TGI (TK-10 renal) was over 100 µM.
For `O=S1(=O)N(CCNc2nccc(-c3c(-c4cccc(O)c4)nc4sccn34)n2)CCN1Cc1ccccc1`, the GI50 (ACHN renal) was 3.83 µM, the TGI (ACHN renal) was 48.2 µM and the GI50 (HL-60(TB) leukemia) was 8.4 µM. The TGI (HL-60(TB) leukemia) was 20.1 µM, the GI50 (HOP-62 NSCLC) was 24.6 µM and the TGI (HOP-62 NSCLC) was over 50 µM. The GI50 (NCI-H522 lung) was 2.98 µM, the TGI (NCI-H522 lung) was 14.9 µM and the GI50 (NCI/ADR-RES ovarian) was 14.1 µM. The TGI (NCI/ADR-RES ovarian) was over 50 µM, the GI50 (OVCAR-3 ovarian) was 6.23 µM and the TGI (OVCAR-3 ovarian) was over 50 µM. For the same molecule, the GI50 (SF-539 CNS) was 7.14 µM, the TGI (SF-539 CNS) was over 50 µM and the GI50 (SNB-75 CNS) was 9.38 µM. It also gave a TGI (SNB-75 CNS) of over 50 µM, a GI50 (SW-620 colon) of 7.87 µM and a TGI (SW-620 colon) of over 50 µM. The GI50 (TK-10 renal) was 4.07 µM and the TGI (TK-10 renal) was 29.2 µM.
With `NCCCCC(N)C(=O)NCCNc1ccc(NCCNC(=O)C(N)CCCCN)c2c1C(=O)c1ccccc1C2=O` (stereo not drawn) the TGI (ACHN renal) was over 100 µM, the TGI (HL-60(TB) leukemia) was over 100 µM and the TGI (HOP-62 NSCLC) was over 100 µM. The TGI (NCI-H522 lung) was over 100 µM, the TGI (NCI/ADR-RES ovarian) was over 100 µM and the TGI (OVCAR-3 ovarian) was over 100 µM. It also gave a TGI (SF-539 CNS) of over 100 µM, a TGI (SNB-75 CNS) of over 100 µM and a TGI (SW-620 colon) of over 100 µM. It also gave a TGI (TK-10 renal) of over 100 µM.
For `C=CC1(C)CCC2=C(CCC3C(C)(C(=O)OC)CCCC23C)C1=O` (stereo not drawn), the TGI (ACHN renal) was 31.9 µM, the TGI (HL-60(TB) leukemia) was 55.2 µM and the TGI (HOP-62 NSCLC) was 31.3 µM. It also gave a TGI (NCI-H522 lung) of 29.3 µM, a TGI (OVCAR-3 ovarian) of 35.3 µM and a TGI (SW-620 colon) of 33.5 µM. It also gave a TGI (TK-10 renal) of 56.4 µM.
With `O=C(N/N=C\c1cccc(O)c1)c1ccncc1` the TGI (ACHN renal) was over 100 µM, the TGI (HOP-62 NSCLC) was over 100 µM and the TGI (NCI-H522 lung) was over 100 µM. The TGI (NCI/ADR-RES ovarian) was over 100 µM, the TGI (OVCAR-3 ovarian) was over 100 µM and the TGI (SNB-75 CNS) was over 100 µM. It also gave a TGI (SW-620 colon) of over 100 µM and a TGI (TK-10 renal) of over 100 µM.
For `O=C1CCCCC2N(C(c3ccccc3)c3ccccc3)CC[C@@]12c1ccccc1` (mixture of isomers), the TGI (ACHN renal) was over 10 µM, the TGI (HL-60(TB) leukemia) was 9.4 µM and the TGI (NCI-H522 lung) was over 10 µM. It also gave a TGI (OVCAR-3 ovarian) of over 10 µM, a TGI (SF-539 CNS) of over 10 µM and a TGI (SNB-75 CNS) of over 10 µM. For the same molecule, the TGI (TK-10 renal) was over 10 µM.
`C=C(C)C(=O)OC1CCC2(C)C(CCC3C2CCC2(C)C(c4ccc(=O)oc4)CC4OC432)C1` (stereo not drawn) was tested, and the TGI (HL-60(TB) leukemia) was 9.64 µM, the TGI (HOP-62 NSCLC) was 10.5 µM and the TGI (NCI-H522 lung) was 8.78 µM. It also gave a TGI (NCI/ADR-RES ovarian) of 26 µM, a TGI (OVCAR-3 ovarian) of 15.1 µM and a TGI (SF-539 CNS) of 27.9 µM. The TGI (SNB-75 CNS) was 36.6 µM and the TGI (SW-620 colon) was 25.1 µM.
`O=C(O)Cc1cc(O)c(CC(=O)O)cc1O` showed a TGI (ACHN renal) of over 100 µM, a TGI (HL-60(TB) leukemia) of over 100 µM and a TGI (HOP-62 NSCLC) of over 100 µM. For the same molecule, the TGI (NCI-H522 lung) was over 100 µM, the TGI (NCI/ADR-RES ovarian) was over 100 µM and the TGI (OVCAR-3 ovarian) was over 100 µM. The TGI (SW-620 colon) was over 100 µM and the TGI (TK-10 renal) was over 100 µM.
Molecule `CCN(CC)CC(=O)O[C@]1(CC)C(=O)OCc2c1cc1n(c2=O)Cc2cc3ccccc3nc2-1` has a TGI (ACHN renal) of 0.146 µM, a TGI (HL-60(TB) leukemia) of 0.401 µM and a TGI (HOP-62 NSCLC) of under 0.048 µM. It also gave a TGI (NCI-H522 lung) of 1.44 µM, a TGI (NCI/ADR-RES ovarian) of 0.165 µM and a TGI (OVCAR-3 ovarian) of 0.947 µM. For the same molecule, the TGI (SF-539 CNS) was 0.17 µM, the TGI (SNB-75 CNS) was 0.677 µM and the TGI (SW-620 colon) was 4.33 µM. The TGI (TK-10 renal) was 24.9 µM.
`Cc1cc(O)c(C(C)(C)C)cc1Sc1cc(C(C)(C)C)c(O)cc1C` was tested, and the GI50 (ACHN renal) was 2.89 µM, the TGI (ACHN renal) was 10 µM and the GI50 (HL-60(TB) leukemia) was 2.6 µM. For the same molecule, the TGI (HL-60(TB) leukemia) was 6.35 µM, the GI50 (HOP-62 NSCLC) was 2.11 µM and the TGI (HOP-62 NSCLC) was 4.74 µM. For the same molecule, the GI50 (NCI-H522 lung) was 2.73 µM, the TGI (NCI-H522 lung) was 5.62 µM and the GI50 (NCI/ADR-RES ovarian) was 2.78 µM. For the same molecule, the TGI (NCI/ADR-RES ovarian) was 7.58 µM, the GI50 (OVCAR-3 ovarian) was 2.23 µM and the TGI (OVCAR-3 ovarian) was 5.45 µM. For the same molecule, the GI50 (SF-539 CNS) was 2.77 µM, the TGI (SF-539 CNS) was 9 µM and the GI50 (SNB-75 CNS) was 2.99 µM. For the same molecule, the TGI (SNB-75 CNS) was 14.5 µM, the GI50 (SW-620 colon) was 3.65 µM and the TGI (SW-620 colon) was 13.7 µM. The GI50 (TK-10 renal) was 2.54 µM and the TGI (TK-10 renal) was 6.22 µM.
Molecule `Cc1nc2ccccc2n1C(=O)c1c(F)c(F)c(F)c(F)c1F` has a TGI (ACHN renal) of 60.7 µM, a TGI (HL-60(TB) leukemia) of over 100 µM and a TGI (HOP-62 NSCLC) of 68.3 µM. For the same molecule, the TGI (NCI-H522 lung) was 10.9 µM, the TGI (NCI/ADR-RES ovarian) was 42.4 µM and the TGI (OVCAR-3 ovarian) was 71.6 µM. The TGI (SF-539 CNS) was 29.5 µM, the TGI (SNB-75 CNS) was 90.1 µM and the TGI (SW-620 colon) was 49.8 µM. The TGI (TK-10 renal) was 66.3 µM.
`Clc1ccccc1/C=C/c1cscn1` showed a TGI (ACHN renal) of over 100 µM, a TGI (HL-60(TB) leukemia) of over 100 µM and a TGI (HOP-62 NSCLC) of over 100 µM. It also gave a TGI (NCI-H522 lung) of over 100 µM, a TGI (OVCAR-3 ovarian) of over 100 µM and a TGI (SF-539 CNS) of over 100 µM. The TGI (SNB-75 CNS) was over 100 µM and the TGI (TK-10 renal) was over 100 µM.
Molecule `CCOC(=O)CN=C1NNS(=O)(=O)c2ccccc21` has a TGI (ACHN renal) of over 100 µM, a TGI (HL-60(TB) leukemia) of over 100 µM and a TGI (HOP-62 NSCLC) of over 100 µM. It also gave a TGI (NCI-H522 lung) of over 100 µM, a TGI (NCI/ADR-RES ovarian) of over 100 µM and a TGI (OVCAR-3 ovarian) of over 100 µM. It also gave a TGI (SF-539 CNS) of over 100 µM, a TGI (SNB-75 CNS) of over 100 µM and a TGI (SW-620 colon) of over 100 µM. For the same molecule, the TGI (TK-10 renal) was over 100 µM.
For `Cc1ccc2c(c1)C1(C)OC(C=CC1=O)O2` (stereo not drawn), the TGI (ACHN renal) was 1.73 µM, the TGI (HL-60(TB) leukemia) was 0.998 µM and the TGI (HOP-62 NSCLC) was 12.2 µM. It also gave a TGI (NCI-H522 lung) of 0.239 µM, a TGI (NCI/ADR-RES ovarian) of 0.0653 µM and a TGI (OVCAR-3 ovarian) of 1.16 µM. The TGI (SF-539 CNS) was 1.27 µM, the TGI (SNB-75 CNS) was 4.35 µM and the TGI (SW-620 colon) was 1.05 µM. For the same molecule, the TGI (TK-10 renal) was 5.5 µM.
For `Cn1c(=O)c2[nH]c(CCCCC(=O)O)nc2n(C)c1=O`, the TGI (ACHN renal) was over 100 µM, the TGI (HOP-62 NSCLC) was over 100 µM and the TGI (NCI-H522 lung) was over 100 µM. The TGI (NCI/ADR-RES ovarian) was over 100 µM, the TGI (OVCAR-3 ovarian) was over 100 µM and the TGI (SNB-75 CNS) was over 100 µM. For the same molecule, the TGI (SW-620 colon) was over 100 µM and the TGI (TK-10 renal) was over 100 µM.
